Here are results for 21 compounds from patent US20220089568A1 (Janssen Biotech, Inc., priority 2019, published 2022).

The target in assay [1] is T1, human DHODH (Homo sapiens, UniProt Q02127).
T1 construct: purchased Proteros PR-0044
Kind of assay: DHODH Enzymatic Assay. In kind it is biochemical. The following applies: purified human DHODH; DCIP absorbance, end-point mode. The method, boiled down: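 Purified human DHODH activity read as absorbance of DCIP, the terminal electron acceptor, in […] pH 7.5, 150 mM NaCl, 0.5 mM EDTA, 0.1% Triton X-100. Reaction started with a substrate mix of 20 mM DHO, 5 mM CoQ6 and 1 mM DCIP in assay buffer.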

For assay [2], the system named is MOLM-13 cells. Kind of assay: MOLM-13 Cellular Assay. The class given is cell-based. The settings on record: Homo sapiens, 72 hours exposure, cell viability by CellTiter-Glo. The method, then:
The day prior to assay set-up, cells were pelleted, resuspended in fresh media, counted, and cells were plated at 0.4×10^6 cell/mL in a T150 flask. […] Cells were exposed to different concentrations of test compounds at 37° C., 5% CO2 for 72 hours immediately after seeding.

T1 sequence (Q02127 whole entry): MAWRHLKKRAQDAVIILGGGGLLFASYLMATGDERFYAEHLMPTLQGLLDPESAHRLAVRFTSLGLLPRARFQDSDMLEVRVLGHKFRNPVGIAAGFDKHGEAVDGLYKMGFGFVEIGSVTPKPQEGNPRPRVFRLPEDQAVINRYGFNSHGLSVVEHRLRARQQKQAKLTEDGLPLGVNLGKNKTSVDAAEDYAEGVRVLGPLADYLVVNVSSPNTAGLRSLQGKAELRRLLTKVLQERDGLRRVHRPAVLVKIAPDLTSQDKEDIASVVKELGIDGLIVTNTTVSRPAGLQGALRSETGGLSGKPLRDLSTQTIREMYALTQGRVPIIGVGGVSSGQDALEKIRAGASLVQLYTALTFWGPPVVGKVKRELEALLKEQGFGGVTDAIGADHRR

As for `CCn1c(CO)nn(-c2nc(O[C@@H](C)C(F)(F)F)c(C(=O)Nc3ccnc(OC)c3Cl)cc2F)c1=O` [Example 24, (S)-N-(3-Chloro-2-methoxypyridin-4-yl)-6-(4-ethyl-3-(hydroxymethyl)-5-oxo-4,5-dihydro-1H-1,2,4-triazol-1-yl)-5-fluoro-2-((1,1,1-trifluoropropan-2-yl)oxy)nicotinamide], the 50% effective concentration (EC50) in assay [1] turned out to be 10.8 nM; in assay [2], 10.1 nM.
For `CCn1c(CO)nn(-c2nc(O[C@@H](C)C(F)(F)F)c(C(=O)Nc3c(Cl)ncc(C)c3C)cc2F)c1=O` [Example 102, N-(2-Chloro-4,5-dimethyl-3-pyridyl)-6-[4-ethyl-3-(hydroxymethyl)-5-oxo-1,2,4-triazol-1-yl]-5-fluoro-2-[(1S)-2,2,2-trifluoro-1-methyl-ethoxy]pyridine-3-carboxamide], the EC50 in assay [1] was determined as 20.1 nM; in assay [2], 1.39 nM.
Taken in the same sequence, the figures for `CCn1c(CO)nn(-c2nc(O[C@@H](C)C(F)(F)F)c(C(=O)Nc3c(Cl)ccc(C)c3C)cc2F)c1=O` [Example 83, N-(6-Chloro-2,3-dimethyl-phenyl)-6-[4-ethyl-3-(hydroxymethyl)-5-oxo-1,2,4-triazol-1-yl]-5-fluoro-2-[(1S)-2,2,2-trifluoro-1-methyl-ethoxy]pyridine-3-carboxamide] were 0.69 nM and 0.73 nM.
In the same order, the values of `CCn1c(CO)nn(-c2nc(O[C@@H](C)C(F)(F)F)c(C(=O)Nc3c(C)ccnc3C(F)F)cc2F)c1=O` [Example 13, (S)-N-(2-(Difluoromethyl)-4-methylpyridin-3-yl)-6-(4-ethyl-3-(hydroxymethyl)-5-oxo-4,5-dihydro-1H-1,2,4-triazol-1-yl)-5-fluoro-2-((1,1,1-trifluoropropan-2-yl)oxy)nicotinamide] are 2.2 nM and 3.3 nM.
In the same order, the values of `CCn1c(CO)nn(-c2nc(O[C@@H](C)C(F)(F)F)c(C(=O)Nc3cc(C)ccc3Cl)cc2F)c1=O` [Example 48, (S)-N-(2-Chloro-5-methylphenyl)-6-(4-ethyl-3-(hydroxymethyl)-5-oxo-4,5-dihydro-1H-1,2,4-triazol-1-yl)-5-fluoro-2-((1,1,1-trifluoropropan-2-yl)oxy)nicotinamide] are 0.761 nM and 0.553 nM.
`CCn1c(CF)nn(-c2nc(O[C@@H](C)C(F)(F)F)c(C(=O)Nc3c(C)ccnc3Cl)cc2F)c1=O` [Example 87, N-(2-Chloro-4-methyl-3-pyridyl)-6-[4-ethyl-3-(fluoromethyl)-5-oxo-1,2,4-triazol-1-yl]-5-fluoro-2-[(1S)-2,2,2-trifluoro-1-methyl-ethoxy]pyridine-3-carboxamide]: the EC50 is 0.448 nM in assay [1] and 1.14 nM in assay [2].
As to `CCn1c(CO)nn(-c2nc(O[C@@H](C)C(F)(F)F)c(C(=O)Nc3ncsc3C)cc2F)c1=O` [Example 32, (S)-6-(4-Ethyl-3-(hydroxymethyl)-5-oxo-4,5-dihydro-1H-1,2,4-triazol-1-yl)-5-fluoro-N-(5-methylthiazol-4-yl)-2-((1,1,1-trifluoropropan-2-yl)oxy)nicotinamide], the values for the EC50 in assay [1] and in assay [2] were 13.6 nM and 25.3 nM, respectively.
For the compound `CCn1c(CO)nn(-c2nc(OC(C)C)c(C(=O)Nc3c(F)cccc3Cl)cc2F)c1=O` [Example 7, N-(2-Chloro-6-fluorophenyl)-6-(4-ethyl-3-(hydroxymethyl)-5-oxo-4,5-dihydro-1H-1,2,4-triazol-1-yl)-5-fluoro-2-isopropoxynicotinamide], the values for the 50% effective concentration (EC50) in assay [1] and in assay [2] were 0.5 nM and 0.219 nM, respectively.
Turning to `CCn1c(CO)nn(-c2nc(O[C@@H](C)C(F)(F)F)c(C(=O)Nc3c(C)n[nH]c3C(F)(F)F)cc2F)c1=O` [Example 111, 6-[4-Ethyl-3-(hydroxymethyl)-5-oxo-1,2,4-triazol-1-yl]-5-fluoro-N-[3-methyl-5-(trifluoromethyl)-1H-pyrazol-4-yl]-2-[(1S)-2,2,2-trifluoro-1-methyl-ethoxy]pyridine-3-carboxamide], the half-maximal effective concentration (EC50) was determined as 1.93 nM in assay [1] and 0.345 nM in assay [2].
In the same order, the values of `CCn1c(CO)nn(-c2nc(O[C@@H](C)C(F)(F)F)c(C(=O)Nc3cnc(OC)cc3Cl)cc2F)c1=O` [Example 50, (S)-N-(4-Chloro-6-methoxypyridin-3-yl)-6-(4-ethyl-3-(hydroxymethyl)-5-oxo-4,5-dihydro-1H-1,2,4-triazol-1-yl)-5-fluoro-2-((1,1,1-trifluoropropan-2-yl)oxy)nicotinamide] are 0.852 nM and 1.83 nM.
On to `CCn1c(CO)nn(-c2nc(O[C@@H](C)C(F)(F)F)c(C(=O)Nc3cc(C(C)C)nn3C)cc2F)c1=O` [Example 59, (S)-6-(4-Ethyl-3-(hydroxymethyl)-5-oxo-4,5-dihydro-1H-1,2,4-triazol-1-yl)-5-fluoro-N-(3-isopropyl-1-methyl-1H-pyrazol-5-yl)-2-((1,1,1-trifluoropropan-2-yl)oxy)nicotinamide], for which the figures for the half-maximal effective concentration (EC50) in assay [1] and in assay [2] were 98.1 nM and more than 100 nM, respectively.
`CCn1c(CO)nn(-c2nc(O[C@@H](C)C(F)(F)F)c(C(=O)Nc3c(Cl)ccc(=O)n3C)cc2F)c1=O` [Example 64, (S)-N-(3-Chloro-1-methyl-6-oxo-1,6-dihydropyridin-2-yl)-6-(4-ethyl-3-(hydroxymethyl)-5-oxo-4,5-dihydro-1H-1,2,4-triazol-1-yl)-5-fluoro-2-((1,1,1-trifluoropropan-2-yl)oxy)nicotinamide]: the figures for the concentration giving a half-maximal response (EC50) in assay [1] and in assay [2] were 101 nM and more than 100 nM, respectively.
In the same order, the values of `CCn1c(CO)nn(-c2nc(O[C@@H](C)C(F)(F)F)c(C(=O)Nc3c(C)ncnc3Cl)cc2F)c1=O` [Example 38, (S)-N-(4-Chloro-6-methylpyrimidin-5-yl)-6-(4-ethyl-3-(hydroxymethyl)-5-oxo-4,5-dihydro-1H-1,2,4-triazol-1-yl)-5-fluoro-2-((1,1,1-trifluoropropan-2-yl)oxy)nicotinamide] are 2390 nM and more than 100 nM.
In the same order, the values of `CCn1c(CCl)nn(-c2nc(O[C@@H](C)C(F)(F)F)c(C(=O)Nc3c(F)cccc3Cl)cc2F)c1=O` [Example 6, (S)-N-(2-Chloro-6-fluorophenyl)-6-(3-(chloromethyl)-4-ethyl-5-oxo-4,5-dihydro-1H-1,2,4-triazol-1-yl)-5-fluoro-2-((1,1,1-trifluoropropan-2-yl)oxy)nicotinamide] are 0.369 nM and 1.47 nM.
Taken in the same sequence, the figures for `CCn1c(CO)nn(-c2nc(O[C@@H](C)C(F)(F)F)c(C(=O)Nc3cn(C)nc3Cl)cc2F)c1=O` [Example 80, N-(3-Chloro-1-methyl-pyrazol-4-yl)-6-[4-ethyl-3-(hydroxymethyl)-5-oxo-1,2,4-triazol-1-yl]-5-fluoro-2-[(1S)-2,2,2-trifluoro-1-methyl-ethoxy]pyridine-3-carboxamide] were 7.2 nM and 12.9 nM.
On to `CCn1c(CO)nn(-c2nc(O[C@@H](C)C(F)(F)F)c(C(=O)Nc3c(F)cccc3Cl)cc2F)c1=O` [Example 1, (S)-N-(2-Chloro-6-fluorophenyl)-6-(4-ethyl-3-(hydroxymethyl)-5-oxo-4,5-dihydro-1H-1,2,4-triazol-1-yl)-5-fluoro-2-((1,1,1-trifluoropropan-2-yl)oxy)nicotinamide], for which the half-maximal effective concentration (EC50) in assay [1] was determined as 0.237 nM; in assay [2], 0.156 nM.
Taken in the same sequence, the figures for `CCn1c(CO)nn(-c2nc(O[C@@H](C)C(F)(F)F)c(C(=O)Nc3conc3C)cc2F)c1=O` [Example 45, (S)-6-(4-Ethyl-3-(hydroxymethyl)-5-oxo-4,5-dihydro-1H-1,2,4-triazol-1-yl)-5-fluoro-N-(3-methylisoxazol-4-yl)-2-((1,1,1-trifluoropropan-2-yl)oxy)nicotinamide] were 142 nM and more than 100 nM.
`CCn1c(CO)nn(-c2nc(O[C@@H](C)C(F)(F)F)c(C(=O)Nc3cnn(CCOC)c3)cc2F)c1=O` [Example 63, (S)-6-(4-Ethyl-3-(hydroxymethyl)-5-oxo-4,5-dihydro-1H-1,2,4-triazol-1-yl)-5-fluoro-N-(1-(2-methoxyethyl)-1H-pyrazol-4-yl)-2-((1,1,1-trifluoropropan-2-yl)oxy)nicotinamide]: the EC50 was 865 nM in assay [1] and more than 100 nM in assay [2].
Taken in the same sequence, the figures for `CCn1c(CO)nn(-c2nc(O[C@@H](C)C(F)(F)F)c(C(=O)Nc3cn(C)nc3COC)cc2F)c1=O` [Example 61, (S)-6-(4-Ethyl-3-(hydroxymethyl)-5-oxo-4,5-dihydro-1H-1,2,4-triazol-1-yl)-5-fluoro-N-(3-(methoxymethyl)-1-methyl-1H-pyrazol-4-yl)-2-((1,1,1-trifluoropropan-2-yl)oxy)nicotinamide] were 365 nM and more than 100 nM.
As for `CCn1c(CO)nn(-c2nc(O[C@@H](C)C(F)(F)F)c(C(=O)Nc3c(OC)cccc3OC)cc2F)c1=O` [Example 119, N-(2,6-Dimethoxyphenyl)-6-[4-ethyl-3-(hydroxymethyl)-5-oxo-1,2,4-triazol-1-yl]-5-fluoro-2-[(1S)-2,2,2-trifluoro-1-methyl-ethoxy]pyridine-3-carboxamide], the half-maximal effective concentration (EC50) worked out at 2.25 nM in assay [1] and 1.48 nM in assay [2].
In the same order, the values of `CCn1c(CF)nn(-c2nc(OC(C)C)c(C(=O)Nc3c(C)ccnc3Cl)cc2F)c1=O` [Example 97, N-(2-Chloro-4-methyl-3-pyridyl)-6-[4-ethyl-3-(fluoromethyl)-5-oxo-1,2,4-triazol-1-yl]-5-fluoro-2-isopropoxy-pyridine-3-carboxamide] are 1.15 nM and 1.06 nM.
